According to US20260317269A1, “Oxamate Derivatives and Prodrugs to Prevent CaOx Stone Formation” (Rutgers, The State University of New Jersey, priority 2023, published 2026):

Assay: CaOx crystallization inhibition assay, remaining free oxalate in solution measured with EnzyChrom oxalate assay kit (Assay B)
Type: biochemical
Settings: for pEC50 / Ratio: from EC50 in the CaOx crystallization inhibition assay; for pEC50: HEPES pH 6.8, r.t., footnote c not given; for pEC50 / EC50: 72 h; for EC50: inhibition of CaOx crystallization, 10 mM HEPES buffer, pH 6.8, 150 mM NaCl, supersaturated CaOx, r.t., remaining oxalate at OD 595 nm; for Ratio: ratio to citrate (citrate = 1)
Excerpt: Calcium oxalate (CaOx) crystallization inhibition assays in HEPES buffer, pH 6.8 include Assay A and Assay B. Assay A: Fluorescence-based assay using Quin-2 to measure the concentration of free calcium in solution (Ex 340 nm/Em 495 nm) (FIG. 1). An example assay protocol is shown below.
Assay B: Spectrophotometric assay using EnzyChrom™ oxalate assay kit from Bioassay Systems (EOXA-100) to measure the concentration of free oxalate in solution at OD 595 nm.
For CaOx crystallization inhibition assay, equal volumes of 2 mM of CaCl2) was combined with […] of Na2Ox to generate […] supersaturated solutions of CaOx in 10 mM HEPES buffer, pH 6.8 containing 150 mM NaCl. The higher concentration of Ca^++ utilized in this assay was designed to mimic the typical calcium levels found in human urine. Following incubation with varying concentrations of inhibitors at r.t. for 72 h and subsequent centrifugation, the EnzyChrom™ oxalate assay kit (EOXA-100, BioAssay Systems) was employed to measure spectrophotometrically the remaining oxalate concentration in solution at 595 nm. This assay determined the EC50 for each inhibitor. This assay was used to determine the activity of about 50 oxamate derivatives synthesized. Separately, dose response curves can be obtained for calcium concentrations and inhibitors concentrations with supersaturated solution: 250 μM CaCl2+250 μM Na2C2O4 in 10 mM HEPES, pH 6.8+150 mM NaCl; Calcium concentration in supernatent after centrifuge was measured using Quin2 via a fluorescence assay (Ex 340 nm/Em 495 nm).
Table 1 lists the EC50's obtained using this assay for various oxamate derivatives, along with other structure features such as linker length and number of OMA units for SAR analysis.

SMILES	pEC50	EC50	Ratio
O=C(O)CC(O)(CC(=O)O)C(=O)O [Citrate, reference compound]	3.18	665 µM	1
O=C(O)C(=O)NCCNC(=O)C(=O)O [Compound 11b]	3.89	127 µM	5
O=C(O)C(=O)NCCCC[C@H](NC(=O)C(=O)O)C(=O)NCCCCCNC(=O)[C@H](CCCCNC(=O)C(=O)O)NC(=O)C(=O)O [Compound 19e, N,N′-(1,5-pentylene)bis(L-Lysinamide) N^α, N^α′,N^ε,N^ε′-tetraoxalate]	5.44	3.6 µM	185

The remaining compounds from weak to strong by EC50, led by results:

pEC50	EC50	SMILES	Ratio
4.20	63.8 µM	O=C(O)C(=O)NCCCC[C@H](NC(=O)C(=O)O)C(=O)O [Compound 9, L-Lysine N^α,N^ε-dioxalate]	10
6.03	0.925 µM	O=C(O)C(=O)NCCCC[C@H](NC(=O)C(=O)O)C(=O)NCCCCCCNC(=O)[C@H](CCCCNC(=O)C(=O)O)NC(=O)C(=O)O [Compound 19f, N,N′-(1,6-hexylene)bis(L-Lysinamide) N^α, N^α′,N^ε,N^ε′-tetraoxalate]	719
